# Measurements as given in US20210045420A1, “SWEETENER AND FLAVOR COMPOSITIONS, METHODS OF MAKING AND METHODS OF USE THEREOF” (EPC Natural Products Co., Ltd., priority 2018, published 2021).
# “Also recorded” adds a separate entry of the source. Residues, ends and D or L forms follow the SMILES beside them.
# Columns and labels:
# [1] = Sensory evaluation of the samples prepared in Example 50 (Example 52; panel of 4, score 0-5 or +/++/+++); format: in vivo, human; parameters: key to Intensity of Smell: “+” for slight; “++” for moderate; “+++” for very strong
# Method: The reaction partner (amino acid, carbohydrate source) were dissolved/suspended in the reaction solvent and transferred into a glass beaker filled with sand pre-heated for at least 30 minutes at the reaction temperature in a drying oven. After the planned reaction time, the vials were transferred into ice water. After cooling to room temperature, sensory analysis and analytical characterization was performed.
# For evaluation of the taste profile, the samples were tested by a panel of four people. 1 trained taster tasted independently the samples first. The taster was asked to describe the taste profile and score 0-5 according to the increasing sugar likeness, bitterness, aftertaste and lingering taste profiles. The first taster was allowed to re-taste, and then make notes for the sensory attributes perceived. Afterwards, another 3 tasters tasted and the attributes were noted and discussed openly to find a suitable description. In case that more than 1 taster disagreed with the results, the tasting was repeated. In some sensory test results (above), the taste rating was expressed by “+”, which means the intensity of the factors is shown by three levels. “+” for slight, “++” for moderate and “+++” for very strong.
# [2] = Sensory evaluation of GSGs and SGs, thaumatin, NHDC and combinations, Example 255; conditions: combinations of EPCalin (Thaumatin 45%) and NHDC dissolved in water
# Method: 4.5 ppm Thaumatin (equivalent to 10 ppm EPCalin) was dissolved in water. Increasing amounts of NHDC (1-5 ppm) were added to the solution and the sensory properties were evaluated.
# 50 ppm (GSGs and SGs) were dissolved in water. Increasing amounts of NHDC (1-5 ppm) were added to the solution and the sensory properties were evaluated.
# 50 ppm (GSGs and SGs) and 4.5 ppm Thaumatin (equivalent to 10 ppm EPCalin) were dissolved in water. Increasing amounts of NHDC (1-5 ppm) were added to the solution and the sensory properties were evaluated.
# Sweetness intensity was rated on 5-point scale
# Sweetness intensity was rated on a 5-point scale
# [3] = sweetness depends on the tested concentration compared with sucrose; cited from earlier work
# [4] = Assay to test DPPH radical-scavenging activity, Example 65; format: biochemical; conditions: Reb-A with or without amino acids, 100° C., FIG. 49 and FIG. 50
# Method: 1 mg 1,1-Diphenyl-2-picrylhydrazyl radical (DPPH)/ml ethanol, dilution to assay concentration were prepared in ethanol (40 μg/mL); Calibration samples were prepared with Ascorbic acid in a concentration of 0-10 μg/mL; as a negative control sample, water was used.
# Samples in aqueous solution were used as such or diluted with water.
# A 0.1 ml sample (or calibration standard) was mixed with 3.9 ml solution of DPPH (100 μMolar) and reacted while protected from light at room temperature for 30 min. Absorbance was determined at 517 nm against ethanol.
# 10 mM of amino acid and/or 10 mM sugar were dissolved in 10 ml 0.1 mM KH2PO4-buffer, pH=7.8.
# The samples were kept at 100° C. in sealed glass vials (Pyrex 15 ml with screw caps) for 0 (before reaction), 2.5 or 5.0 hours. Thereafter the samples were transferred to an ice water bath and cooled down to room temperature. These samples were diluted 1:10 and used for the test assay for anti-oxidant potential.
# [5] = Table 52.2, reaction in 1 ml water + 9 ml Glycerin, 0.67 h, 100° C. (Table 50.2)
# [6] = Table 52.5, reaction in 1 ml water + 9 ml Glycerin, 2.0 h, 120° C. (Table 50.5)
# [7] = Table 52.3, reaction in 1 ml water + 9 ml Glycerin, 0.67 h, 100° C. (Table 50.3)
# [8] = Table 52.1, samples prepared in Example 50
compound,measurement,setting,value
C[C@H](N)C(=O)O [0.1 mMol Ala],Smell,[1]; [5],Agar
same,Taste,[1]; [5],sweet
O=C[C@H](O)[C@H]1OC(=O)[C@@H](O)[C@H]1O [0.1 mMol GlucLac],Intensity of Smell,[1]; [6],+++
same,Smell,[1]; [6],Burnt sugar
same,Taste,[1]; [6],Bitter
NCCCC[C@H](N)C(=O)O [0.1 mMol Lys],Smell,[1]; [7],Popcorn
same,Taste,[1]; [7],Sweet
N[C@@H](Cc1ccccc1)C(=O)O [0.1 mMol Phe],Smell,[1]; [5],"flowery/bloomy,; also recorded: caramel"
same,Taste,[1]; [5],sweet
same,Intensity of Smell,[1]; [6],+
same,Smell,[1]; [6],"Caramel, burnt"
same,Taste,[1]; [6],sweet
C=C1C[C@@]23CC[C@H]4[C@@](C)(CCC[C@@]4(C)C(=O)O[C@@H]4O[C@H](CO)[C@@H](O)[C@H](O)[C@H]4O)[C@@H]2CC[C@]1(O[C@@H]1O[C@H](CO)[C@@H](O)[C@H](O[C@@H]2O[C@H](CO)[C@@H](O)[C@H](O)[C@H]2O)[C@H]1O[C@@H]1O[C@H](CO)[C@@H](O)[C@H](O)[C@H]1O)C3 [0.05 mMol Reb-A],Smell,[1]; [5],neutral/unpleasant
same,Taste,[1]; [5],sweet
COc1ccc(CCC(=O)c2c(O)cc(O[C@@H]3O[C@H](CO)[C@@H](O)[C@H](O)[C@H]3O[C@@H]3O[C@@H](C)[C@H](O)[C@@H](O)[C@H]3O)cc2O)cc1O [10 ppm NHDC],Sensory evaluation,[2],"Sweet, steep onset of sweetness, no lingering"
N[C@@H](CCC(=O)O)C(=O)O [167 mMol Glu],Smell,[1]; [8],caramel
same,Taste,[1]; [8],Sweet
COC(=O)[C@H](Cc1ccccc1)NC(=O)[C@@H](N)CC(=O)O [Aspartame] (H-Asp-Phe-OMe),times sweeter than sucrose / sugar,[3],160-200 times
OC[C@@H](O)[C@@H](O)[C@H](O)[C@H](O)CO [Mannitol],times sweeter than sucrose / sugar,[3],0.55-0.65 times
N[C@@H](Cc1ccccc1)C(=O)O [Phe 60 mMol],Smell,[1]; [8],flowery/bloomy-caramel
same,Taste,[1]; [8],Sweet
"C=C1C[C@@]23CC[C@H]4[C@@](C)(CCC[C@@]4(C)C(=O)O[C@@H]4O[C@H](CO)[C@@H](O)[C@H](O)[C@H]4O)[C@@H]2CC[C@]1(O[C@@H]1O[C@H](CO)[C@@H](O)[C@H](O[C@@H]2O[C@H](CO)[C@@H](O)[C@H](O)[C@H]2O)[C@H]1O[C@@H]1O[C@H](CO)[C@@H](O)[C@H](O)[C@H]1O)C3 [Reb-A, Rebaudioside A]",anti-oxidant properties,[4],substantial anti-oxidant properties
C=C1C[C@@]23CC[C@H]4[C@@](C)(CCC[C@@]4(C)C(=O)O[C@@H]4O[C@H](CO)[C@@H](O)[C@H](O)[C@H]4O)[C@@H]2CC[C@]1(O[C@@H]1O[C@H](CO)[C@@H](O)[C@H](O)[C@H]1O)C3 [Rubusoside],times sweeter than sucrose / sugar,[3],200 times
C[C@H](CC[C@@H](O[C@@H]1O[C@H](CO)[C@@H](O)[C@H](O)[C@H]1O[C@@H]1O[C@H](CO)[C@@H](O)[C@H](O)[C@H]1O)C(C)(C)O)[C@H]1CC[C@@]2(C)[C@H]3CC=C4[C@@H](CC[C@H](O[C@@H]5O[C@H](CO[C@@H]6O[C@H](CO)[C@@H](O)[C@H](O)[C@H]6O)[C@@H](O)[C@H](O)[C@H]5O)C4(C)C)[C@]3(C)[C@H](O)C[C@]12C [mogroside IV],times sweeter than sucrose / sugar,[3],126 times
C[C@H](CC[C@@H](O[C@@H]1O[C@H](CO[C@@H]2O[C@H](CO)[C@@H](O)[C@H](O)[C@H]2O)[C@@H](O)[C@H](O)[C@H]1O[C@@H]1O[C@H](CO)[C@@H](O)[C@H](O)[C@H]1O)C(C)(C)O)[C@H]1CC[C@@]2(C)[C@@H]3CC=C4[C@@H](CC[C@H](O[C@@H]5O[C@H](CO[C@@H]6O[C@H](CO)[C@@H](O)[C@H](O)[C@H]6O)[C@@H](O)[C@H](O)[C@H]5O)C4(C)C)[C@]3(C)[C@H](O)C[C@]12C [mogroside V],times sweeter than sucrose / sugar,[3],256-344 times
O=S(=O)([O-])NC1CCCCC1.[Na+] [sodium cyclamate],times sweeter than sucrose / sugar,[3],about 30 times
OC[C@H]1O[C@H](O[C@]2(CCl)O[C@H](CCl)[C@@H](O)[C@@H]2O)[C@H](O)[C@@H](O)[C@H]1Cl [sucralose],times sweeter than sucrose / sugar,[3],about 600 times
Thaumatin,times sweeter than sucrose / sugar,[3],about 2000 times
